Measurements as given in patent publication US11345694B2, “Antibacterial compounds” (DISCUVA LTD., priority 2017, dated 2022).
≈ marks a conversion by molar mass, not a printed value.

How the values were obtained:
[1] = tested on: Pseudomonas aeruginosa ATCC 33359 (PA); test: MIC broth microdilution; type: cell-based; details: ATCC33359
Procedure: (§1) Minimum Inhibitory Concentrations (MICs) versus planktonic bacteria are determined by the broth microdilution procedure according to the guidelines of the Clinical and Laboratory Standards Institute (Clinical and Laboratory Standards Institute. Methods for Dilution Antimicrobial Susceptibility Tests for Bacteria That Grow Aerobically; Approved Standard-tenth Edition. CLSI document M07-A10, 2015). The broth dilution method involves a two-fold serial dilution of compounds in 96-well microtitre plates, giving a final concentration range of 0.39-200 μM and a maximum final concentration of 2% DMSO. The bacterial strains tested include Escherichia coli K12 (EC), E. coli NCTC 13441 (UPEC), Staphylococcus aureus ATCC 35556 (SA), Acinetobacter baumannii ATCC 17978 (AB), Pseudomonas aeruginosa ATCC 33359 (PA), Enterobacter cloacae DSM 30054 (Ed), Serratia marcescens SL1344 (Sm), Salmonella typhimurium XNAA5 (St), Klebsiella pneumoniae ATCC 10031 (KP2), K. pneumoniae NCTC 13438 (KP1), K. pneumoniae ATCC 700603 (KP3), Klebsiella pneumoniae ATCC 51504 (KP4), K. pneumoniae H154680676 (KP5), K. pneumoniae H154020667 (KP6), K. pneumoniae H154640784 (KP7), K. pneumoniae H154600588 (KP8), K. pneumoniae H154300688 (KP9), K. pneumoniae H151440671 (KP10). Strains are grown in cation-adjusted Müller-Hinton broth or on Luria Bertoni agar at 37° C. in an ambient atmosphere. The MIC is determined as the lowest concentration of compound that inhibits growth following a 20-24 hour incubation period.

[2] = tested on: Klebsiella pneumoniae ATCC 10031 (KP2); test: MIC broth microdilution; type: cell-based; details: ATCC10031
Procedure: as §1

[3] = tested on: Staphylococcus aureus ATCC 35556 (SA); test: MIC broth microdilution; type: cell-based; details: ATCC35556
Procedure: as §1

[4] = tested on: Acinetobacter baumannii ATCC 17978 (AB); test: MIC broth microdilution; type: cell-based; details: ATCC17978
Procedure: as §1

[5] = tested on: Escherichia coli K12 (EC); test: MIC broth microdilution; type: cell-based
Procedure: as §1

[6] = tested on: K. pneumoniae NCTC 13438 (KP1); test: MIC broth microdilution; type: cell-based, Klebsiella pneumoniae; details: Klebsiella pneumoniae, NCTC13438
Procedure: as §1

[7] = tested on: E. coli NCTC 13441 (UPEC); test: MIC broth microdilution; type: cell-based, Escherichia coli; details: Escherichia coli, NCTC13441
Procedure: as §1

[8] = tested on: human hepatocarcinoma cell line ATCC HB-8065 (HepG2); test: Human cell viability (CellTiter-Glo); type: cell-based; details: Homo sapiens; HepG2 cells, 24 h incubation, CellTiter-Glo luminescence, 0.2-100 μM; read-out: IC50 values against the HepG2 cell line
Procedure: Compounds are assessed for potential non-specific cytotoxic effects against the human hepatocarcinoma cell line ATCC HB-8065 (HepG2). HepG2 cells are seeded at 20,000 cells/well in 96-well microtitre plates in minimal essential medium (MEM) supplemented with a final concentration of 10% FBS. After 24 h, compound dilutions are prepared in MEM supplemented with a final concentration of 1% FBS, and added to the cells. Compounds are tested in two-fold serial dilutions over a final concentration range of 0.2-100 μM in a final DMSO concentration of 1% vol/vol. Thioridazine is used as a positive control. Cells are incubated with compound at 37° C. and 5% CO2 for a further 24 h, after which time the CellTiter-Glo reagent (Promega) is added. Luminescence is measured on a Perkin Elmer Envision plate reader. Data are analysed using a 4 parameter logistic regression to determine the concentration of compound that inhibits cell viability by fifty percent (IC50).

Row | SMILES | MIC [1] | MIC [2] | MIC [3] | MIC [4] | MIC [5] | MIC [6] | MIC [7] | IC50 [8]
1 | Cc1cc(-c2[nH]c(N)nc2-c2ccc3c(c2)CC(C)O3)ccn1 (racemic) [Example 41, 4-(2-Methyl-2,3-dihydrobenzofuran-5-yl)-5-(2-methylpyridin-4-yl)-1H-imidazol-2-amine] | > 100 µM | ≤ 1 µM | > 100 µM | > 100 µM | ≤ 1 µM | 1 to 10 µM (≈ 0.306 to 3.06 µg/mL) | ≤ 1 µM | > 100 µM
2 | Cc1cc(-c2[nH]c(CN)nc2-c2ccc3c(c2)NCCO3)ccn1 [Compound 88] | > 100 µM | ≤ 1 µM | > 100 µM | > 100 µM | 1 to 10 µM (≈ 0.321 to 3.21 µg/mL) | 10 to 100 µM (≈ 3.21 to 32.1 µg/mL) | 1 to 10 µM (≈ 0.321 to 3.21 µg/mL) | > 100 µM
3 | COc1ccc(-c2[nH]c(N)nc2-c2ccnc(C)c2)cc1OC [Example 1, 5-(3,4-Dimethoxyphenyl)-4-(2-methylpyridin-4-yl)-1H-imidazol-2-amine] | > 100 µM | ≤ 1 µM | > 100 µM | > 100 µM | 10 to 100 µM (≈ 3.1 to 31 µg/mL) | > 100 µM | 10 to 100 µM (≈ 3.1 to 31 µg/mL) | > 100 µM
4 | COc1ccc(-c2nc(N)[nH]c2-c2ccnc(C)c2)cn1 [Example 2, 4-(6-Methoxypyridin-3-yl)-5-(2-methylpyridin-4-yl)-1H-imidazol-2-amine] | > 100 µM | ≤ 1 µM | > 100 µM | > 100 µM | 1 to 10 µM (≈ 0.281 to 2.81 µg/mL) | 10 to 100 µM (≈ 2.81 to 28.1 µg/mL) | 1 to 10 µM (≈ 0.281 to 2.81 µg/mL) | > 100 µM
5 | Cc1cc(-c2[nH]c(N)nc2-c2ccc3c(c2)OCCCO3)ccn1 [Example 5, 4-(3,4-dihydro-2H-benzo[b][1,4]dioxepin-7-yl)-5-(2-methylpyridin-4-yl)-1H-imidazol-2-amine] | > 100 µM | ≤ 1 µM | > 100 µM | > 100 µM | 1 to 10 µM (≈ 0.322 to 3.22 µg/mL) | 10 to 100 µM (≈ 3.22 to 32.2 µg/mL) | 1 to 10 µM (≈ 0.322 to 3.22 µg/mL) | > 100 µM
6 | COc1cc(-c2[nH]c(N)nc2-c2ccnc(C)c2)ccc1F [Example 6, 5-(4-Fluoro-3-methoxyphenyl)-4-(2-methylpyridin-4-yl)-1H-imidazol-2-amine] | > 100 µM | ≤ 1 µM | > 100 µM | > 100 µM | 1 to 10 µM (≈ 0.298 to 2.98 µg/mL) | 10 to 100 µM (≈ 2.98 to 29.8 µg/mL) | 1 to 10 µM (≈ 0.298 to 2.98 µg/mL) | > 100 µM
7 | Nc1cc(-c2[nH]c(N)nc2-c2ccc3c(c2)CCO3)ccn1 [Example 8, 4-(2-Amino-4-(2,3-dihydrobenzofuran-5-yl)-1H-imidazol-5-yl)pyridin-2-amine] | > 100 µM | ≤ 1 µM | > 100 µM | > 100 µM | ≤ 1 µM | 10 to 100 µM (≈ 2.93 to 29.3 µg/mL) | ≤ 1 µM | > 100 µM
8 | Nc1nc(-c2ccc3c(c2)OCCO3)c(-c2cccnc2)[nH]1 [Example 22, 4-(2,3-Dihydrobenzo[b][1,4]dioxin-6-yl)-5-(pyridin-3-yl)-1H-imidazol-2-amine] | > 100 µM | 1 to 10 µM (≈ 0.294 to 2.94 µg/mL) | > 100 µM | > 100 µM | > 100 µM | > 100 µM | > 100 µM | 
9 | Nc1nc(-c2ccncn2)c(-c2ccc3c(c2)OCCO3)[nH]1 [Example 30] | > 100 µM | 1 to 10 µM (≈ 0.295 to 2.95 µg/mL) | > 100 µM | > 100 µM | 10 to 100 µM (≈ 2.95 to 29.5 µg/mL) | > 100 µM | 10 to 100 µM (≈ 2.95 to 29.5 µg/mL) | 
10 | Cc1cc(-c2[nH]c(N)nc2-c2ccc3c(c2)N(CC2CC2)C(=O)CO3)ccn1 [Example 67, 6-(2-Amino-4-(2-methylpyridin-4-yl)-1H-imidazol-5-yl)-4-(cyclopropylmethyl)-2H-benzo[b][1,4]oxazin-3(4H)-one] | > 100 µM | ≤ 1 µM | > 100 µM | > 100 µM | 1 to 10 µM (≈ 0.375 to 3.75 µg/mL) | 10 to 100 µM (≈ 3.75 to 37.5 µg/mL) | 1 to 10 µM (≈ 0.375 to 3.75 µg/mL) | 
11 | Cc1cc(-c2[nH]c(N)nc2-c2ccc3c(c2)N(C(C)C)C(=O)CO3)ccn1 [Example 68, 6-(2-Amino-4-(2-methylpyridin-4-yl)-1H-imidazol-5-yl)-4-isopropyl-2H-benzo[b][1,4]oxazin-3(4H)-one] | > 100 µM | ≤ 1 µM | > 100 µM | > 100 µM | 1 to 10 µM (≈ 0.363 to 3.63 µg/mL) | 10 to 100 µM (≈ 3.63 to 36.3 µg/mL) | 1 to 10 µM (≈ 0.363 to 3.63 µg/mL) | 
12 | Cc1cc(-c2[nH]c(N)nc2-c2ccc3c(c2)N(C2CCCC2)C(=O)CO3)ccn1 [Example 69, 6-(2-Amino-4-(2-methylpyridin-4-yl)-1H-imidazol-5-yl)-4-cyclopentyl-2H-benzo[b][1,4]oxazin-3(4H)-one] | > 100 µM | ≤ 1 µM | > 100 µM | > 100 µM | 1 to 10 µM (≈ 0.389 to 3.89 µg/mL) | 10 to 100 µM (≈ 3.89 to 38.9 µg/mL) | 1 to 10 µM (≈ 0.389 to 3.89 µg/mL) | 
13 | Cc1cc(-c2nc(N)[nH]c2-c2ccc3c(c2)N(CCOCCO)C(=O)CO3)ccn1 [Example 70, 6-(2-Amino-4-(2-methylpyridin-4-yl)-1H-imidazol-5-yl)-4-(2-(2-hydroxyethoxy)ethyl)-2H-benzo[b][1,4]oxazin-3(4H)-one] | > 100 µM | ≤ 1 µM | > 100 µM | > 100 µM | 1 to 10 µM (≈ 0.409 to 4.09 µg/mL) | 10 to 100 µM (≈ 4.09 to 40.9 µg/mL) | 1 to 10 µM (≈ 0.409 to 4.09 µg/mL) | 
14 | CC(=O)Nc1nc(-c2ccc3c(c2)OCCO3)c(-c2ccnc(C)c2)[nH]1 [Example 72, N-(4-(2,3-Dihydrobenzo[b][1,4]dioxin-6-yl)-5-(2-methylpyridin-4-yl)-1H-imidazol-2-yl)acetamide] | > 100 µM | 1 to 10 µM (≈ 0.35 to 3.5 µg/mL) | > 100 µM | > 100 µM | > 100 µM | > 100 µM | > 100 µM | 
15 | Cc1cc(-c2c(-c3ccc4c(c3)OCCO4)nc(N)n2C)ccn1 [Example 73, 4-(2,3-dihydrobenzo[b][1,4]dioxin-6-yl)-1-methyl-5-(2-methylpyridin-4-yl)-1H-imidazol-2-amine] | > 100 µM | > 100 µM | > 100 µM | > 100 µM | > 100 µM | > 100 µM | > 100 µM | 
16 | CNc1nc(-c2ccc3c(c2)NCCO3)c(-c2ccnc(C)c2)[nH]1 [Example 78, 4-(3,4-Dihydro-2H-benzo[b][1,4]oxazin-6-yl)-N-methyl-5-(2-methylpyridin-4-yl)-1H-imidazol-2-amine] | > 100 µM | ≤ 1 µM | > 100 µM | > 100 µM | 1 to 10 µM (≈ 0.321 to 3.21 µg/mL) | 10 to 100 µM (≈ 3.21 to 32.1 µg/mL) | 1 to 10 µM (≈ 0.321 to 3.21 µg/mL) | 
17 | Cc1cc(-c2[nH]c(N(C)C)nc2-c2ccc3c(c2)NCCO3)ccn1 [Example 79, 4-(3,4-Dihydro-2H-benzo[b][1,4]oxazin-6-yl)-N,N-dimethyl-5-(2-methylpyridin-4-yl)-1H-imidazol-2-amine] | > 100 µM | 1 to 10 µM (≈ 0.335 to 3.35 µg/mL) | > 100 µM | > 100 µM | 10 to 100 µM (≈ 3.35 to 33.5 µg/mL) | > 100 µM | 1 to 10 µM (≈ 0.335 to 3.35 µg/mL) | 
18 | Cc1cc(-c2[nH]c(=O)[nH]c2-c2ccc3c(c2)OCCO3)ccn1 [Example 82, 4-(2,3-Dihydrobenzo[b][1,4]dioxin-6-yl)-5-(2-methylpyridin-4-yl)-1,3-dihydro-2H-imidazol-2-one] | > 100 µM | ≤ 1 µM | > 100 µM | > 100 µM | 10 to 100 µM (≈ 3.09 to 30.9 µg/mL) | > 100 µM | 10 to 100 µM (≈ 3.09 to 30.9 µg/mL) | 
19 | Cc1cc(-c2[nH]c(N)nc2-c2ccc3c(c2)N(CCOCCO)CCO3)ccn1 [Example 95, 2-(2-(6-(2-Amino-5-(2-methylpyridin-4-yl)-1H-imidazol-4-y1)-2,3-dihydro-4H-benzo[b][1,4]oxazin-4-yl)ethoxy)ethan-1-ol] | > 100 µM | ≤ 1 µM | > 100 µM | > 100 µM | 1 to 10 µM (≈ 0.395 to 3.95 µg/mL) | 10 to 100 µM (≈ 3.95 to 39.5 µg/mL) | 1 to 10 µM (≈ 0.395 to 3.95 µg/mL) | 
